Our source for the IC50 values is patent US11939344B2, “Spirocyclic compounds” (ASTRAZENECA AB, priority 2021, dated 2024).

Assay [1] relates to HCT116 KO-MTAP cells. The experiment in a line: PRMT5 cell SDMA assay, MTAP KO cells. The assay is classed as cell-based. Conditions: Homo sapiens.
Assay [2] has as its system HCT116 WT cells. The experiment in a line: PRMT5 cell SDMA assay, MTAP WT cells. Type of assay: cell-based. Conditions: Homo sapiens.
The subject of assay [3] is HCT116 KO-MTAP cells. The experiment in a line: Cell proliferation assay (Alamar Blue), MTAP KO cells. The assay is classed as cell-based. Conditions: Homo sapiens. Here is the method: (§1) Cell Proliferation Assays:
(§2) A day 0 plate is created in parallel but not dosed, after plating 4 μl of Alamar Blue (Thermo #DAL1100) and incubate for 3 h at 37 C, 5% CO2.
(§3) The dosed cell plates were then incubated for 5 days at 37° C. before adding Alamar blue and being read in the Envision following same protocol as for first plate.
In general terms: The colour change of resazurin is a common sign of viable cells or microbes.

Assay [4] has as its system HCT116 WT cells. The experiment in a line: Cell proliferation assay (Alamar Blue), MTAP WT cells. Type of assay: cell-based. Conditions: Homo sapiens, HCT-116, 120 h, 5 days. Here is the method:
as §1, §2, §3

In assay [5] the target is human heterooctameric PRMT5:MEP50 enzyme complex (Homo sapiens, UniProt O14744). The experiment in a line: biochemical.
Sequence of human heterooctameric PRMT5:MEP50 enzyme complex (O14744 whole entry): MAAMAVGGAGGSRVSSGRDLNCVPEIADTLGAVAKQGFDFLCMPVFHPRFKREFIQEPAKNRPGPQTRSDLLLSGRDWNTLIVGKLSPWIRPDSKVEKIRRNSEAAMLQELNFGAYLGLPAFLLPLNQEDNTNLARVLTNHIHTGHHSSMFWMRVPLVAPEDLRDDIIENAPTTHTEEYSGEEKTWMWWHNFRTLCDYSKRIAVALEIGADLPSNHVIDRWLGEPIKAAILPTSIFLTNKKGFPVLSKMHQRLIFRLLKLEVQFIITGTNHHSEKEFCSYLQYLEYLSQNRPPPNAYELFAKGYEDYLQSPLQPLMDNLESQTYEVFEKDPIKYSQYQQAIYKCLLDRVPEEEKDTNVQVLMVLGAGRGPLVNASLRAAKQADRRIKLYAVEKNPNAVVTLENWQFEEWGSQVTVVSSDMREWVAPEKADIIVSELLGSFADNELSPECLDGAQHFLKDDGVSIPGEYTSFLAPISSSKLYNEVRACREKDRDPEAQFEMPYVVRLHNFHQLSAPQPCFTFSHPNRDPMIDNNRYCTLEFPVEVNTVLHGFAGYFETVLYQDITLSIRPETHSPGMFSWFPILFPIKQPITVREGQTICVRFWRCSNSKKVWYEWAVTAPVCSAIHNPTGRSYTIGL
Sequence of human heterooctameric PRMT5:MEP50 enzyme complex (Q9BQA1 whole entry partner): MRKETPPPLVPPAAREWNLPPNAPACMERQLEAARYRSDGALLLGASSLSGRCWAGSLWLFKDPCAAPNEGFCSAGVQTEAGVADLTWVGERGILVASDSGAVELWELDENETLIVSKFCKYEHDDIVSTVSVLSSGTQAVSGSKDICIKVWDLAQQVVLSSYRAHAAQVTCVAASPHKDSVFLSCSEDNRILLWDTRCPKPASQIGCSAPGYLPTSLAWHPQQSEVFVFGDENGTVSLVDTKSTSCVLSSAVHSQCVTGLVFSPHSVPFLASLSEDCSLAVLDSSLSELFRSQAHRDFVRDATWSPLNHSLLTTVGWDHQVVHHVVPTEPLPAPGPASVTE
Description: MTase-GIlo™ PRMT5 Luminescence Assays (PRMT5 Enzyme Assays)
An Mtase-Glo™ methyltransferase Luminescence assay was employed to monitor the conversion of S-Adenosyl methionine (SAM) to S-Adenosyl Homocysteine (SAH) by recombinant PRMT5:MEP50 enzyme complex in the presence or absence of the 5′-Methylthioadenosine (MTA). […] The reaction buffer contained 20 mM Bicine (pH 7.60), 25 mM NaCl, 1 mM DTT and 0.1% (w/v) CHAPS.
All wells were backfilled with the appropriate volume of DMSO to achieve a final concentration of 1% v/v in a 3 μl final assay volume.
After 5 h incubation in room temperature, 1 μL of 0.5% (v/v) TFA was added to each well to quench the methylation reaction.
Data was analysed and the IC50 values were calculated using the Genedata Screener® software.
Where [6] appears, read: HCT-116, HCT116 MTAP KO, 48 hours, read-out: Cell SDMA IC50 (μM) (MTAP KO).
Setting [7] is: HCT-116, HCT116 MTAP WT, 48 hours, read-out: Cell SDMA IC50 (μM) (MTAP WT).
The mark [8] stands for this setting: HCT-116, 120 h, HCT116 MTAP KO, 5 days, read-out: Cell proliferation IC50 (μM) (MTAP KO).
Setting [9] is: HCT-116, column 6, read-out: Cell proliferation IC50 in MTAP KO cells.

SMILES strings stand for the structures. A value given as a limit tells only on which side of the number the result lay.

Consider `C#CCN1CC[C@@]2(C1=O)c1ccc(F)cc1C(=O)N2Cc1cc2nc(N)c(F)cc2[nH]1` [Example 3, (S)-2-((5-Amino-6-fluoro-1H-pyrrolo[3,2-b]pyridin-2-yl)methyl)-5-fluoro-1′-(prop-2-yn-1-yl)spiro[isoindoline-1,3′-pyrrolidine]-2′,3-dione], for which the IC50 in the assay on HCT116 KO-MTAP cells [1] (HCT-116, column 4, read-out: Cell SDMA IC50, MTAP knock out HCT116 cells) worked out at 0.013 µM; in the assay with HCT116 KO-MTAP cells [1] (setting [6]) it was 0.013 µM; with HCT116 WT cells [2] (HCT-116, column 5, read-out: Cell SDMA IC50, HCT116 wild type cells) it was 0.56 µM; with HCT116 WT cells [2] (setting [7]), 0.56 µM; in the assay on HCT116 KO-MTAP cells [3] (setting [8]) it was 0.32 µM; with HCT116 KO-MTAP cells [3] (setting [9]), 0.32 µM. The IC50 with HCT116 WT cells [4] is more than 30 µM; in assay [5], 61 nM.

With `CN1CC[C@@]2(C1=O)c1ccc(F)cc1C(=O)N2Cc1cc2nc(N)c(F)cc2[nH]1` [Example 10, (S)-2-((5-Amino-6-fluoro-1H-pyrrolo[3,2-b]pyridin-2-yl)methyl)-5-fluoro-1′-methylspiro[isoindoline-1,3′-pyrrolidine]-2′,3-dione], the IC50 is 0.023 µM in the assay with HCT116 KO-MTAP cells [1] (setting [6]), 1.7 µM in the assay with HCT116 WT cells [2] (setting [7]), 1.6 µM with HCT116 KO-MTAP cells [3] (setting [8]) and more than 30 µM in the assay with HCT116 WT cells [4].

With `Nc1nc2cc(CN3C(=O)c4cc(F)ccc4[C@]34CCN(CC(F)F)C4=O)[nH]c2cc1F` [Example 8, (S)-2-((5-Amino-6-fluoro-1H-pyrrolo[3,2-b]pyridin-2-yl)methyl)-1′-(2,2-difluoroethyl)-5-fluorospiro[isoindoline-1,3′-pyrrolidine]-2′,3-dione], the IC50 is 0.025 µM in the assay with HCT116 KO-MTAP cells [1] (setting [6]), more than 1.5 µM with HCT116 WT cells [2] (setting [7]), 1.9 µM in the assay on HCT116 KO-MTAP cells [3] (setting [8]) and more than 30 µM in the assay on HCT116 WT cells [4].

With `Nc1nc2cc(CN3C(=O)c4cc(F)ccc4[C@]34CCN(CCOC(F)(F)F)C4=O)[nH]c2cc1Cl` [Example 27, (S)-2-((5-Amino-6-chloro-1H-pyrrolo[3,2-b]pyridin-2-yl)methyl)-5-fluoro-1′-(2-(trifluoromethoxy)ethyl)spiro[isoindoline-1,3′-pyrrolidine]-2′,3-dione], the IC50 in the assay with HCT116 KO-MTAP cells [1] (setting [6]) is 0.0047 µM; with HCT116 WT cells [2] (setting [7]), 0.17 µM; in the assay with HCT116 KO-MTAP cells [3] (setting [8]) it was 0.36 µM; in the assay on HCT116 WT cells [4], more than 30 µM.

For the molecule `Nc1nc2cc(CN3C(=O)c4cc(F)ccc4[C@]34CCN(Cc3ccc(F)cc3)C4=O)[nH]c2cc1F` [Example 1, (S)-2-((5-Amino-6-fluoro-1H-pyrrolo[3,2-b]pyridin-2-yl)methyl)-5-fluoro-1′-(4-fluorobenzyl)spiro[isoindoline-1,3′-pyrrolidine]-2′,3-dione], the IC50 with HCT116 KO-MTAP cells [1] (HCT-116, 48 h, read-out: Cell SDMA IC50 (μM) (MTAP KO)) was found to be 0.0053 µM; with HCT116 KO-MTAP cells [1] (HCT-116, read-out: Cell SDMA IC50, MTAP knock out HCT116 cells), 0.0053 µM; in the assay with HCT116 WT cells [2] (HCT-116, 48 h, read-out: Cell SDMA IC50 (μM) (MTAP WT)), 0.29 µM; with HCT116 WT cells [2] (HCT-116, read-out: Cell SDMA IC50, HCT116 wild type cells), 0.29 µM; with HCT116 KO-MTAP cells [3] (setting [8]), 0.16 µM; in the assay on HCT116 KO-MTAP cells [3] (setting [9]), 0.16 µM. The molecule also returned an IC50 in the assay with HCT116 WT cells [4] of more than 30 µM.
